These results are taken from PubChem BioAssay AID1996.

In brackets after ≈: the same amount, converted by molar mass. Some results are limits rather than exact numbers.

The conditions of this data set: buffer; pH 7.4; 200.0 µM.
For the compound `CCOc1ccc(CCNC(=O)COC(=O)c2ccc[nH]c2=O)cc1OCC`, the kinetic solubility (commonly solubility judged after dilution from a stock solution rather than from solid) was above 58.3 µg/mL.
In turn, `O=C(c1ccc(F)cc1)N1CCCC(C(=O)N2CCCCC2)C1` (configuration not stated) returned a kinetic solubility above 47.8 µg/mL.
In the case of `COc1ccc(C(=O)CN2C(=O)c3ccccc3C2=O)c(OC)c1`, the kinetic solubility came out at 1.3 µg/mL (≈ 4 µM).
For `Cc1cccc(NC(=O)/C(C#N)=C/c2ccc(Cl)cc2)n1` the value was 0.6 µg/mL (≈ 2.02 µM).
In turn, `COc1ccc(C(=O)OCC(=O)NC(=O)NC2CCCC2)cc1[N+](=O)[O-]` had a solubility (kinetic) of 6.4 µg/mL (≈ 17.5 µM).
To `Cc1ccc(-c2nc3ncccc3o2)cc1N` belongs above 33.8 µg/mL; to `Cc1ccc2oc(=O)n(Cc3ccccc3)c2c1`, 2.9 µg/mL (≈ 12.1 µM); to `Brc1ccccc1Cn1cnc2ccccc21`, 27.8 µg/mL (≈ 96.8 µM).
`COc1ccc(Nc2oc(-c3ccccc3F)nc2C#N)cc1` came in with a solubility (kinetic) below 0.2 µg/mL.
`COc1cccc(C(=O)Nc2ccc(NC(=O)C3CCCCC3)nc2)c1` came in with a solubility (kinetic) of 2 µg/mL (≈ 5.66 µM).
For `O=C1NC(=S)NC(=O)C1=Cc1ccc(Br)s1` the value was 44.3 µg/mL (≈ 140 µM); for `CN(C)C(=O)c1ccc(Cl)cc1[N+](=O)[O-]`, above 34.3 µg/mL; for `N#Cc1ccc(C(=O)N(Cc2ccccc2)c2ccccc2)cc1`, 26.4 µg/mL (≈ 84.5 µM).
Compound `CC(=O)c1cccc(NC(=O)c2cc(=O)[nH]c3ccccc23)c1` gave a kinetic solubility of 12.5 µg/mL (≈ 40.8 µM).
With `Cc1cc(-c2cccc(Br)c2)c(C#N)c(N)n1`, the solubility (kinetic) turned out to be 3.1 µg/mL (≈ 10.8 µM).
As for `O=C(COC(=O)c1ccc(Br)cc1)NCC1CCCO1` (configuration not stated), the kinetic solubility is above 51.3 µg/mL.
In the case of `CC(=O)Nc1ccc(SCc2c(C)noc2C)cc1`, the solubility (kinetic) is above 41.5 µg/mL.
Regarding `Cc1nnc(SC(C)C(=O)Nc2ccc(Cl)cc2Cl)[nH]c1=O` (configuration not stated), the solubility (kinetic) was above 53.9 µg/mL.
On to `O=c1[nH]cccc1-c1nc2ccccc2n1Cc1ccccc1F`, for which the kinetic solubility came out at 3.9 µg/mL (≈ 12.2 µM).
For the compound `OC(CNCc1ccccc1Cl)COc1ccc(F)cc1` (configuration not stated), the solubility (kinetic) is above 46.5 µg/mL.
For `Cc1ccc(C)c(NC(=O)CSc2nnc(-c3ccncc3)o2)c1` the value was above 51.1 µg/mL.
Regarding `Cc1c(C)n(CCc2ccccc2)c2ncnc(NCCCN(C)C)c12`, the solubility (kinetic) was above 52.7 µg/mL.
On to `O=c1[nH]c(/C=C\c2ccc(O)c(O)c2)nc(O)c1[N+](=O)[O-]`, for which the solubility (kinetic) was above 43.7 µg/mL.
The compound `O=S(=O)(NCCC1CC1(Cl)Cl)c1ccc(Cl)cc1` (configuration not stated) had a kinetic solubility of 45.9 µg/mL (≈ 140 µM).
Compound `CCOC(=O)C1=C(C)NC(SC)=C(C#N)C1CC(C)C` (configuration not stated) registered a kinetic solubility of 2.3 µg/mL (≈ 7.81 µM).
To `Cc1[nH]c(=O)[nH]c(=O)c1Sc1ccccc1[N+](=O)[O-]` belongs 20.5 µg/mL (≈ 73.4 µM).
For `Nc1ccn([C@H]2C[C@H](O)[C@@H](CO)O2)c(=O)n1.O` the value was above 36.8 µg/mL.
`CC(C)c1nc2oc3c(=O)[nH]cnc3c2c2c1COC(C)(C)C2` registered a solubility (kinetic) above 47 µg/mL.
`O=C(NC1CC1)c1sc2ccccc2c1Cl` showed a kinetic solubility of 1.6 µg/mL (≈ 6.36 µM).
For the compound `CCOC(=O)N[C@H](Cc1c[nH]c2ccccc12)C(=O)NC1CC1`, the kinetic solubility is above 47.3 µg/mL.
`CC(=O)c1ccc(NC(=O)N2C[C@H]3C[C@@H](C2)c2cccc(=O)n2C3)cc1` gave a solubility (kinetic) above 52.7 µg/mL.
Turning to `CCn1c(Cc2cccs2)nnc1SCC(=O)NC1CC1`, the kinetic solubility is above 48.4 µg/mL.
To `CC(C)C(CCNC1CCN(C)CC1)c1ccc(Cl)cc1` (configuration not stated) belongs 33.5 µg/mL (≈ 108 µM); to `CCCc1cc(C(=O)Nc2ccc(F)c(Cl)c2)no1`, 1.5 µg/mL (≈ 5.31 µM); to `NC(=O)NC(=O)COC(=O)CC12CC3CC(CC(C3)C1)C2`, 29.2 µg/mL (≈ 99.2 µM).
As to `O=C(CSCc1ccccc1Cl)Nc1ccc(C(=O)O)cc1`, the kinetic solubility is above 50.4 µg/mL.
For `CC1CN(C(=O)c2cc3cc(Cl)ccc3[nH]2)CC(C)O1` (configuration not stated) the value was 24.3 µg/mL (≈ 83 µM); for `CC(=O)Nc1ccc(NC(=O)CC23CC4CC(CC(C4)C2)C3)cc1`, 21.3 µg/mL (≈ 65.2 µM).
As to `O=C(OCc1nc2ccccc2s1)c1ccccc1O`, the kinetic solubility was 4.8 µg/mL (≈ 16.8 µM).
In the case of `O=C(COC(=O)c1cc(Cl)cc(Cl)c1)NCc1ccco1`, the solubility (kinetic) was determined as 28.4 µg/mL (≈ 86.5 µM).
Take `CC(C)CN1CCN(Cc2ccc(C(F)(F)F)cc2)CC1CCO` (configuration not stated): the solubility (kinetic) stood at 45.5 µg/mL (≈ 132 µM).
For `O=c1[nH]c(/C=C/c2cccc3ccccc23)nc2ccccc12` the value was 2.1 µg/mL (≈ 7.04 µM).
Consider `O=C(NNC(=O)c1ccccn1)c1ccc(OC(F)F)cc1`, for which the kinetic solubility was above 46.1 µg/mL.
Take `CCCN1CCN(S(=O)(=O)c2ccc3c(c2)CCC(=O)N3)CC1`: the solubility (kinetic) is above 50.6 µg/mL.
Compound `Cc1cc(Nc2cccc(Cl)c2Cl)n2ncnc2n1` had a solubility (kinetic) above 44.1 µg/mL.
In turn, `COc1cccc(C(=O)NC2CCCc3ccccc32)c1` (configuration not stated) returned a solubility (kinetic) of 7.8 µg/mL (≈ 27.7 µM).
`CCOc1ccccc1OCCN1CCCC1` gave a solubility (kinetic) of 24.1 µg/mL (≈ 102 µM).
For `Nc1ccc(Oc2ccc3c(c2)C(=O)NC3=O)cc1`, the kinetic solubility came out at 35.5 µg/mL (≈ 140 µM).
`COc1ccc(CC(=S)NCCc2ccccc2)cc1` came in with a kinetic solubility of 13 µg/mL (≈ 45.5 µM).
For `Cc1ccc(S(=O)(=O)N2CC(O)CC2C(=O)OCC(=O)Nc2ccc([N+](=O)[O-])cc2C(F)(F)F)cc1C` (configuration not stated), the solubility (kinetic) came to 76.5 µg/mL (≈ 140 µM).
To `COC(OC)C1Nc2ccccc2C(=O)N1c1ccc(F)cc1` (configuration not stated) belongs above 47.4 µg/mL; to `CCS(=O)(=O)N1CCC(C(=O)NCc2ccc3c(c2)OCO3)CC1`, above 53.2 µg/mL.
